Results from article PMC2424174, “Suppression of Tumor Growth and Angiogenesis by a Specific Antagonist of the Cell-Surface Expressed Nucleolin” (PLoS ONE, 2008).

What was measured:
tumor cells = test: Apoptosis in HB-19 treated cells; assay type: cell-based; settings: not shown
MDA-MB-231 cells = test: BrdU incorporation and cell cycle analysis; assay type: cell-based, human; settings: 10 µM HB-19, 48 hours, 10% FBS, compared to untreated cells
Experimental: Figure 5 Cell cycle perturbations induced by HB-19 treatment. (A) Analysis of cell cycle parameters in HB-19 treated cells. MDA-MB-231 cells were cultured for 48 hours in medium without FBS (starvation) or in medium containing 10% FBS supplemented or not with 10 µM HB-19. DNA synthesis was quantified after BrdU incorporation and staining with anti-BrdU antibody and 7-AAD, by FACScan analysis. The histograms indicate the relative amount of cells in G1, S and G2/M cell phases. […] Serum starved MDA-MB-231 cells were stimulated with 10% FBS in the absence or presence of 2, 5, and 10 µM of HB-19. Five minutes after serum stimulation, cells were lysed directly in electrophoresis sample buffer and processed for immunoblotting using anti-phospho-p42/44 ERK1/2 and anti-p42/44 ERK antibodies. NS stands for non-stimulated cells.
Cell cycle analysis was performed using the FITC-BrdU flow kit (#559619) kit from BD Bioscience Pharmingen, according to the manufacturer's instructions. Briefly, MDA-MB-231 cells (1×10^5) were seeded in 12-multiwell and incubated 24 hours for adhesion. Cells were treated with HB-19 for 48 hours and labeled with BrdU (10 µM, 1 hour, 37°C), then they were trypsinized, fixed and treated with DNase (300 µg/ml, 1 hour, 37°C) before staining with anti-BrdU-FITC antibody and 7-AAD reagent. Cells were analyzed on a Becton Dickinson FACScan (fluorescence activated cell sorter), on FL1-H and FL3-H parameters for FITC and 7-AAD fluorescent dye respectively.

[1] = system: MDA-MB-231 tumor-cell xenografts; test: MDA-MB-231 xenograft in nude mice; assay type: in vivo, human
Experimental: (§1) Figure 8 HB-19 inhibits tumor growth in the nude mice. (A) HB-19 inhibits the growth of MDA-MB-231 tumor-cell xenografts. Cells (2×10^6) were injected subcutaneously into the right flank of female nude mice. Two weeks later, mice with a palpable tumor of approximately 40 mm^3 in volume were randomly separated into three groups (n = 5) and were given peritumoral injections 3 times/week of 0.1 ml PBS alone (Control), HB-19 (5 mg/kg), or Tamoxifen (Tmx) 10 mg/kg) for 6 weeks. (B) HB-19 inhibits the growth of MDA-MB-435 tumor-cell xenografts. Cells (1×10^6) were injected in the mammary fat pad of female nude mice. Two weeks later, mice with a palpable tumor were randomly separated into three groups (n = 10) and were given intraperitoneal injections 3 times/week of 0.1 ml PBS alone (Control), HB-19 (5 mg/kg), or 5-fluouracil (5-FU, 40 mg/kg) for 8 weeks. At the end of each experiment (in A and B), mice were sacrificed and the tumors were excised and weighed. The results are presented as the mean weight ±standard deviation (±S.D.) obtained from the number of mice in each group. (C, D) Inhibition of tumor development in mice treated by intraperitoneal (i.p.) and subcutaneous (s.c.) administration of HB-19. MDA-MB-231 tumor bearing mice in three groups (n = 10) were treated with HB-19 (10 mg/kg) by i.p. or s.c. injections, 3 times/week for 28 days. […] Statistical significance: *p<0.05, **p<0.01, ***p<0.001.

[2] = system: MDA-MB-435 tumor-cell xenografts; test: MDA-MB-435 xenograft in nude mice; assay type: in vivo, human; settings: HB-19 5 mg/kg, intraperitoneal, 3 times/week, 8 weeks, n = 10
Experimental: Figure 8 HB-19 inhibits tumor growth in the nude mice. (A) HB-19 inhibits the growth of MDA-MB-231 tumor-cell xenografts. Cells (2×10^6) were injected subcutaneously into the right flank of female nude mice. Two weeks later, mice with a palpable tumor of approximately 40 mm^3 in volume were randomly separated into three groups (n = 5) and were given peritumoral injections 3 times/week of 0.1 ml PBS alone (Control), HB-19 (5 mg/kg), or Tamoxifen (Tmx) 10 mg/kg) for 6 weeks. (B) HB-19 inhibits the growth of MDA-MB-435 tumor-cell xenografts. Cells (1×10^6) were injected in the mammary fat pad of female nude mice. Two weeks later, mice with a palpable tumor were randomly separated into three groups (n = 10) and were given intraperitoneal injections 3 times/week of 0.1 ml PBS alone (Control), HB-19 (5 mg/kg), or 5-fluouracil (5-FU, 40 mg/kg) for 8 weeks. At the end of each experiment (in A and B), mice were sacrificed and the tumors were excised and weighed. The results are presented as the mean weight ±standard deviation (±S.D.) obtained from the number of mice in each group. (C, D) Inhibition of tumor development in mice treated by intraperitoneal (i.p.) and subcutaneous (s.c.) administration of HB-19. MDA-MB-231 tumor bearing mice in three groups (n = 10) were treated with HB-19 (10 mg/kg) by i.p. or s.c. injections, 3 times/week for 28 days. […]

[3] = Blood cell count in tumor bearing mice; assay type: in vivo, mouse; settings: 3 times/week, 8 weeks
Experimental: as §1
Blood samples were collected by cardiac puncture. Hematocrit level, white blood cells and platelets count were determined individually in whole blood anticoagulated with EDTA (1 mM) at room temperature. Blood cell count was analyzed with an automated flow cytometric blood cell counter (Cell-Dyn 3500, Abbott Laboratories, Rungis, France).

[4] = system: cells (surface nucleolin); test: Internalization of nucleolin ligands (quoted); assay type: cell-based; settings: HB-19, 20°C; compared with GROs
athymic nude mice = settings: mouse, in vivo
Experimental: Inhibitory action of HB-19 was tested against established human breast carcinoma xenografts in the athymic nude mice. For this purpose, mice were inoculated subcutaneously with MDA-MB-231 or MDA-MB-435 cells that proliferate into palpable tumors in 2 weeks. Tumor bearing mice were then treated with HB-19 (Figure 8A, B) or control antitumoral reagents such as tamoxifen and 5-fluouracil (5-FU). The mice were administered 3 times per week with various drugs, during which time tumor-volume was measured by a caliper every third or fourth day. At the end of experiment, tumor-bearing mice were sacrificed, blood was collected for analysis, and the liver, lungs and spleen were removed for histological analysis.
4-week old female athymic nude Mice (Janvier, Le Genest St Isle, France) were injected subcutaneously in the right flank (MDA-MB-231) or in the mammary fat pad (MDA-MB-435) in 0.1 ml PBS. When the tumor reached about 40 mm^3, the mice were separated randomly in several groups. Administration of HB-19 in PBS (5 mg/kg body weight) was either by intraperitoneal, subcutaneous or peritumoral injections three times per week. Tumor volume was measured along two major axes with calipers. Tumor volume (mm^3) was calculated as follows: V = 4/3×π×R1 ^2×R2, where R1 is radius 1, R2 is radius 2 and R1<R2.

[5] = cited from earlier work
Source text: HB-19 treatment is not toxic in vitro and in vivo. The lack of translocation of HB-19 to the nucleus and nucleolus probably accounts for its lack of toxicity in cultured cells and in mice, since nuclear nucleolin is involved in many aspects of gene expression, [2]. […] In s ...

nucleolin = settings: cited from earlier work
Source text: HB-19 presents pentavalently the tripeptide Kψ(CH2N)PR in which the reduced peptide bond provides high stability against serum proteases (Figure 1). HB-19 forms a stable complex with the cell-surface expressed nucleolin and is internalized by an active process. This le ... || The interaction of HB-19 with surface nucleolin was investigated using human breast cancer MDA-MB-231 tumor cells and human umbilical vein endothelial cells (HUVECs). […] Similarly, HB-19/Btn binds and forms a stable complex with surface nucleolin in a dose-dependent manner in both types of cell ... || Previously, guanosine-rich phosphodiester oligonucleotides (referred to as GROs) and endostatin have been reported to exert antitumoral and antiangiogenic activity, respectively, through interaction with surface nucleolin [21], [41], [42]. […] At 20°C, GRO ... || (+ 1 further places)

[6] = HB-19 10 mg/kg, intraperitoneal, 3 times/week, 28 days, n = 10

Substance: pseudo-tripeptide Lysψ(CH2N)-Pro-Arg coupled to a template (H2NLys-Lys-Lys-Gly-Pro-Lys-Glu-Lys-AhxCONH2) [HB-19, pseudopeptide presenting pentavalently the pseudo-tripeptide Lysψ(CH2N)-Pro-Arg coupled to a template]
- apoptosis (tumor cells): not observed
- decrease of cells in S phase (MDA-MB-231 cells): 62%
- increase of cells in G1 phase (MDA-MB-231 cells): 9%
- increase of cells in G2/M phase (MDA-MB-231 cells): 31%
- antitumoral activity compared with tamoxifen ([1]; HB-19 5 mg/kg vs tamoxifen 10 mg/kg, peritumoral): superior to the conventional cancer drug tamoxifen
- tumor elimination ([1]; HB-19 5 mg/kg, peritumoral, 3 times/week, 6 weeks): in some cases eliminated measurable tumors
- inhibition of tumor growth ([1]; HB-19 5 mg/kg, peritumoral, 3 times/week, 6 weeks, n = 5): > 95%
- complete eradication of the tumor [1, 6]: Complete eradication of the tumor was observed in several mice
- inhibition in tumor volume [1, 6]: more than 95%
- inhibition in tumor volume ([1]; HB-19 10 mg/kg, subcutaneous, 3 times/week, 28 days, n = 10): more than 95%
- inhibition of tumor growth [2]: 57%
- Eosinophils ([3]; HB-19 5 mg/kg or 5-FU 40 mg/kg i.p., mean ± SD, n = 10, untreated 0.01±0.02): 0.03±0.04 ×10^3/µl
- Basophils ([3]; HB-19 5 mg/kg or 5-FU 40 mg/kg i.p., mean ± SD, n = 10, untreated 0.10±0.06): 0.09±0.04 ×10^3/µl
- Monocytes ([3]; HB-19 5 mg/kg or 5-FU 40 mg/kg i.p., mean ± SD, n = 10, untreated 0.20±0.09): 0.23±0.07 ×10^3/µl
- Neutrophils ([3]; HB-19 5 mg/kg or 5-FU 40 mg/kg i.p., mean ± SD, n = 10, untreated 0.89±0.39, 5-FU p<0.05): 1.03±0.44 ×10^3/µl
- Lymphocytes ([3]; HB-19 5 mg/kg or 5-FU 40 mg/kg i.p., mean ± SD, n = 10, untreated 1.84±0.78, 5-FU p<0.01): 1.98±1.01 ×10^3/µl
- Leukocytes ([3]; HB-19 5 mg/kg or 5-FU 40 mg/kg i.p., mean ± SD, n = 10, untreated 3.05±1.29, 5-FU p<0.05): 3.36±1.28 ×10^3/µl
- Erythrocytes ([3]; HB-19 5 mg/kg or 5-FU 40 mg/kg i.p., mean ± SD, n = 10, untreated 8.73±0.26, 5-FU p<0.0001): 8.31±1.05 ×10^6/µl
- Platelets ([3]; HB-19 5 mg/kg or 5-FU 40 mg/kg i.p., mean ± SD, n = 10, untreated 1041±91): 1037± 225 ×10^3/µl
- effect on number of platelets, erythrocytes and leukocytes ([3]; HB-19 5 mg/kg, intraperitoneal): no effect on the number of platelets, erythrocytes, and leukocytes
- localization at 20°C [4]: remains aggregated at the plasma membrane
- effect on body weight and blood cell counts (athymic nude mice): no effect on body weight and on blood cell counts
- effect on tissues at autopsy (athymic nude mice): no apparent effect on various tissues compared to control mice
- recovery in bone marrow ([5]; a few minutes following intravenous injection): a significant proportion of the peptide is recovered in the bone marrow
- tissue uptake [5]: there is a threshold for the tissue uptake of HB-19
- persistence in tissue ([5]; rats, 24 hours): a significant proportion still persists even after 24 hours in its active form
- blood clearance ([5]; rats, systemic administration): rapidly cleared from blood
- tissue distribution ([5]; rats, systemic administration): distributed selectively in tissues expressing enhanced levels of surface nucleolin
- form of excreted radioactivity in urine ([5]; rats): most of the excreted radioactivity in the urine is in the form of HB-19 metabolites
- route of elimination ([5]; rats): eliminated gradually by renal glomerular filtration
- binding site on nucleolin (nucleolin): binds the C-terminal RGG domain of cell-surface expressed nucleolin
- heparan sulfate proteoglycan requirement of binding to surface nucleolin (nucleolin): endostatin but not HB-19 binding to surface nucleolin requires heparan sulfate proteoglycans
- reversibility of binding to surface nucleolin (nucleolin; physiological conditions): bind surface nucleolin in an irreversible manner
